From patent publication US8354539B2, “Indole derivatives as IKK2 inhibitors” (Glaxo Group Limited, priority 2009, dated 2013)

Test system: polychromatic erythrocytes from rat bone marrow
Experiment: Bone marrow micronucleus assay in rats
Conditions: 20 mg/kg/day oral, once only, male rats, positive control
Method: The objective of this study was to assess the potential of 5-[2-(1-methylethyl)-2,3-dihydro-1H-isoindol-5-yl]-3-(1-{[2-(methyloxy)ethyl]sulfonyl}-4-piperidinyl)-1H-indole-7-carboxamide in induce structural chromosomal damage and/or aneuploidy in vivo, in polychromatic erythrocytes from rat bone marrow, when administered to rats for two consecutive days.
Crl: CD(SD) rats were used in this study.
Doses of 500, 1000, 2000 mg/kg/day of 5-[2-(1-methylethyl)-2,3-dihydro-1H-isoindol-5-yl]-3-(1-{[2-(methyloxy)ethyl]sulfonyl}-4-piperidinyl)-1H-indole-7-carboxamide, or vehicle (0.5% (w/v) aqueous hydroxypropylmethylcellulose containing 0.1% (w/v) Tween 80), were given orally (by gavage) to groups of 3 male and 3 female rats. […]
Doses of 1000 or 2000 mg/kg/day—5-[2-(1-methylethyl)-2,3-dihydro-1H-isoindol-5-yl]-3-(1-{[2-(methyloxy)ethyl]sulfonyl}-4-piperidinyl)-1H-indole-7-carboxamide or vehicle (0.5% (w/v) aqueous hydroxypropylmethylcellulose containing 0.1% (w/v) Tween 80) were given orally, by gavage, on two consecutive days to groups of 6 male rats. […] Smears were stained with acridine orange prior to analysis with fluorescense microscopy to determine the proportion of polychromatic erythrocytes in the total erythrocyte count (% PCE) and the number of micronucleated polychromatic erythrocytes (MPCE) per 2000 PCE analysed.

## O=P1(N(CCCl)CCCl)NCCCO1 (centres unmarked) [Cyclophosphamide, cyclophosphamide]
  Group Mean % PCE: 46%
  Group Mean MPCE: 51.87 per 2000 PCE analysed
